Nine molecules from US20120121591A1 (priority 2009, published 2012) can be followed below.

Read-outs that look alike come from different tables or passages of the source.

What all share (type): cell-based
Test [1] has as its target hKv1.3 (Homo sapiens, UniProt P22001). Briefly: cell-based.
For test [2], the system named is IFN-g secretion from T cells in human whole blood.
For test [3], the system named is IL-2 secretion from T cells in human whole blood. The note with it: read-out: WB (IL-2) IC50 (nM, Avg).
The mark [4] stands for this setting: read-out: WB (IFNg) IC50 (nM, Avg).

hKv1.3, sequence (P22001 whole entry): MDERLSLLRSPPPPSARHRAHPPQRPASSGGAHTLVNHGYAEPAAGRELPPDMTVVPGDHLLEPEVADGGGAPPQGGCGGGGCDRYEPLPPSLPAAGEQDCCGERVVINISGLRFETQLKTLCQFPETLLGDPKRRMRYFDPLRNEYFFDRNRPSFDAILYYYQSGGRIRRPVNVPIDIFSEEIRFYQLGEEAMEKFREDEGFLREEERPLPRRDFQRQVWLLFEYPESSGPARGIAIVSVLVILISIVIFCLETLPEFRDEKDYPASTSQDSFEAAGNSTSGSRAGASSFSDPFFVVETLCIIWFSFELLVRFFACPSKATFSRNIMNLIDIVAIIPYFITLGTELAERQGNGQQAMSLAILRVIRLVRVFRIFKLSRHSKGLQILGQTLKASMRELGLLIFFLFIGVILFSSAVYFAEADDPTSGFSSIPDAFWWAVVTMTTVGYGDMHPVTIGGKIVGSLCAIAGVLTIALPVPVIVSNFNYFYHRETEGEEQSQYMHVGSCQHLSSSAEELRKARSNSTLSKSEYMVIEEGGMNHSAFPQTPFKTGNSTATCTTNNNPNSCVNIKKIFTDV

“20kDaPEG-[-Nal16]ShK (RSCIDTIPKSRCTAFXCKHSMKYRLSFCRKTCGTC; 20 kDa PEG; 1-Nal16; ShK PEGylated toxin peptide analog; PEGylated; 3-(1-naphthyl)alanine)”: in test [1] (read-out: Kv1.3 (IWQ) IC50 (nM, Avg)), the IC50 is 39.1 nM.
In the case of `CC[C@H](C)[C@@H]1NC(=O)[C@@H](NC(=O)[C@H](CO)NC(=O)[C@@H](N)CCCNC(=N)N)CSSC[C@@H](C(=O)O)NC(=O)[C@H]([C@@H](C)O)NC(=O)CNC(=O)[C@@H]2CSSC[C@@H]3NC(=O)[C@H](CCC(N)=O)NC(=O)[C@H](Cc4ccccc4)NC(=O)[C@H](C)NC(=O)[C@H]([C@@H](C)O)NC(=O)[C@H](CSSC[C@H](NC(=O)[C@H](Cc4ccccc4)NC(=O)[C@H](CO)NC(=O)[C@H](CC(C)C)NC(=O)[C@H](CCCNC(=N)N)NC(=O)[C@H](Cc4ccc(O)cc4)NC(=O)[C@H](CCCCN)NC(=O)[C@H](CCSC)NC(=O)[C@H](Cc4cccc5ccccc45)NC(=O)[C@H](Cc4cnc[nH]4)NC(=O)[C@H](CCCCN)NC3=O)C(=O)N[C@@H](CCCNC(=N)N)C(=O)N[C@@H](CCCCN)C(=O)N[C@@H]([C@@H](C)O)C(=O)N2)NC(=O)[C@H](CCCNC(=N)N)NC(=O)[C@H](CO)NC(=O)[C@H](CCCCN)NC(=O)[C@@H]2CCCN2C(=O)[C@H]([C@@H](C)CC)NC(=O)[C@H]([C@@H](C)O)NC(=O)[C@H](CC(=O)O)NC1=O` [[1-Nal20]ShK], the IC50 in test [1] (Kv1.3 (IWQ) IC50 (nM, Avg)) came out at 2.11 nM.
As to `CC[C@H](C)[C@@H]1NC(=O)[C@@H](NC(=O)[C@H](CO)NC(=O)[C@@H](N)CCCNC(=N)N)CSSC[C@@H](C(=O)O)NC(=O)[C@H](Cc2cccc3ccccc23)NC(=O)CNC(=O)[C@@H]2CSSC[C@@H]3NC(=O)[C@H](CCC(N)=O)NC(=O)[C@H](Cc4ccccc4)NC(=O)[C@H](C)NC(=O)[C@H]([C@@H](C)O)NC(=O)[C@H](CSSC[C@H](NC(=O)[C@H](Cc4ccccc4)NC(=O)[C@H](CO)NC(=O)[C@H](CC(C)C)NC(=O)[C@H](CCCNC(=N)N)NC(=O)[C@H](Cc4ccc(O)cc4)NC(=O)[C@H](CCCCN)NC(=O)[C@H](CCSC)NC(=O)[C@H](CO)NC(=O)[C@H](Cc4cnc[nH]4)NC(=O)[C@H](CCCCN)NC3=O)C(=O)N[C@@H](CCCNC(=N)N)C(=O)N[C@@H](CCCCN)C(=O)N[C@@H]([C@@H](C)O)C(=O)N2)NC(=O)[C@H](CCCNC(=N)N)NC(=O)[C@H](CO)NC(=O)[C@H](CCCCN)NC(=O)[C@@H]2CCCN2C(=O)[C@H]([C@@H](C)CC)NC(=O)[C@H]([C@@H](C)O)NC(=O)[C@H](CC(=O)O)NC1=O` [[1-Nal34]ShK], in test [1] (Kv1.3 (IWQ) IC50 (nM, Avg)), the IC50 is 0.077 nM.
`CC[C@H](C)[C@@H]1NC(=O)[C@@H](NC(=O)[C@H](CO)NC(=O)[C@@H](N)CCCNC(=N)N)CSSC[C@@H](C(=O)O)NC(=O)[C@H]([C@@H](C)O)NC(=O)CNC(=O)[C@@H]2CSSC[C@@H]3NC(=O)[C@H](CCC(N)=O)NC(=O)[C@H](Cc4ccccc4)NC(=O)[C@H](C)NC(=O)[C@H]([C@@H](C)O)NC(=O)[C@H](CSSC[C@H](NC(=O)[C@H](Cc4ccccc4)NC(=O)[C@H](CO)NC(=O)[C@H](CC(C)C)NC(=O)[C@H](CCCNC(=N)N)NC(=O)[C@H](Cc4ccc(O)cc4)NC(=O)[C@H](CCCNC(=N)N)NC(=O)[C@H](CCSC)NC(=O)[C@H](CO)NC(=O)[C@H](Cc4cnc[nH]4)NC(=O)[C@H](CCCCN)NC3=O)C(=O)N[C@@H](CCCNC(=N)N)C(=O)N[C@@H](CCCCN)C(=O)N[C@@H]([C@@H](C)O)C(=O)N2)NC(=O)[C@H](CCCNC(=N)N)NC(=O)[C@H](CO)NC(=O)[C@H](CCCCN)NC(=O)[C@@H]2CCCN2C(=O)[C@H]([C@@H](C)CC)NC(=O)[C@H]([C@@H](C)O)NC(=O)[C@H](CC(=O)O)NC1=O` [[Arg22]ShK] yielded an IC50 in test [1] (Kv1.3 (IWQ) IC50 (nM, Avg)) of 18.7 nM.
For the molecule `CC[C@H](C)[C@@H]1NC(=O)[C@@H](NC(=O)[C@H](CO)NC(=O)[C@@H](N)CCCNC(=N)N)CSSC[C@@H](C(=O)O)NC(=O)[C@H]([C@@H](C)O)NC(=O)CNC(=O)[C@@H]2CSSC[C@@H]3NC(=O)[C@H](CCC(N)=O)NC(=O)[C@H](Cc4ccccc4)NC(=O)[C@H](C)NC(=O)[C@H]([C@@H](C)O)NC(=O)[C@H](CSSC[C@H](NC(=O)[C@H](Cc4ccccc4)NC(=O)[C@H](CO)NC(=O)[C@H](CC(C)C)NC(=O)[C@H](CCCNC(=N)N)NC(=O)[C@H](CCCNC(=N)N)NC(=O)[C@H](CCCCN)NC(=O)[C@H](CCSC)NC(=O)[C@H](CO)NC(=O)[C@H](Cc4cnc[nH]4)NC(=O)[C@H](CCCCN)NC3=O)C(=O)N[C@@H](CCCNC(=N)N)C(=O)N[C@@H](CCCCN)C(=O)N[C@@H]([C@@H](C)O)C(=O)N2)NC(=O)[C@H](CCCNC(=N)N)NC(=O)[C@H](CO)NC(=O)[C@H](CCCCN)NC(=O)[C@@H]2CCCN2C(=O)[C@H]([C@@H](C)CC)NC(=O)[C@H]([C@@H](C)O)NC(=O)[C@H](CC(=O)O)NC1=O` [[Arg23]ShK], the IC50 in test [1] (Kv1.3 (IWQ) IC50 (nM, Avg)) was 0.154 nM.
`CC[C@H](C)[C@@H]1NC(=O)[C@@H](NC(=O)[C@H](CO)NC(=O)[C@@H](N)CCCNC(=N)N)CSSC[C@@H](C(=O)O)NC(=O)[C@H]([C@@H](C)O)NC(=O)CNC(=O)[C@@H]2CSSC[C@@H]3NC(=O)[C@H](CCC(N)=O)NC(=O)[C@H](Cc4ccccc4)NC(=O)[C@H](C)NC(=O)[C@H]([C@@H](C)O)NC(=O)[C@H](CSSC[C@H](NC(=O)[C@H](Cc4ccccc4)NC(=O)[C@H](CO)NC(=O)[C@H](CC(C)C)NC(=O)[C@H](CCCNC(=N)N)NC(=O)[C@H](Cc4ccc(O)cc4)NC(=O)[C@H](CCCCN)NC(=O)[C@H](CCSC)NC(=O)[C@H](CO)NC(=O)[C@H](Cc4c[nH]cn4)NC(=O)[C@H](CCCCN)NC3=O)C(=O)N[C@@H](CCCNC(=N)N)C(=O)N[C@@H](CCCCN)C(=O)N[C@@H]([C@@H](C)O)C(=O)N2)NC(=O)[C@H](CCCNC(=N)N)NC(=O)[C@H](CO)NC(=O)[C@H](CCCCN)NC(=O)[C@H](CCC(=O)O)NC(=O)[C@H]([C@@H](C)CC)NC(=O)[C@H]([C@@H](C)O)NC(=O)[C@H](CC(=O)O)NC1=O` [[Glu8]ShK]: the IC50 in test [1] (Kv1.3 (IWQ) IC50 (nM, Avg)) was found to be 0.097 nM; in test [2] (read-out: WB (IFNg) IC5- (nM, Avg)), 0.238 nM.
Regarding `CC[C@H](C)[C@@H]1NC(=O)[C@@H](NC(=O)[C@H](CO)NC(=O)[C@@H](N)CCCNC(=N)N)CSSC[C@@H](C(=O)O)NC(=O)[C@H]([C@@H](C)O)NC(=O)CNC(=O)[C@@H]2CSSC[C@@H]3NC(=O)[C@H](CCC(N)=O)NC(=O)[C@H](Cc4ccccc4)NC(=O)[C@H](C)NC(=O)[C@H]([C@@H](C)O)NC(=O)[C@H](CSSC[C@H](NC(=O)[C@H](Cc4ccccc4)NC(=O)[C@H](CO)NC(=O)[C@H](CC(C)C)NC(=O)[C@H](CCCNC(=N)N)NC(=O)[C@H](Cc4ccc(O)cc4)NC(=O)[C@H](CCCCN)NC(=O)[C@H](CCSC)NC(=O)[C@H](CO)NC(=O)[C@H](Cc4cnc[nH]4)NC(=O)[C@H](CCCCN)NC3=O)C(=O)N[C@@H](CCCNC(=N)N)C(=O)N[C@@H](CCCCN)C(=O)N[C@@H]([C@@H](C)O)C(=O)N2)NC(=O)[C@H](CCCNC(=N)N)NC(=O)[C@H](CO)NC(=O)[C@H](CCCCN)NC(=O)[C@@H]2CCCN2C(=O)[C@H]([C@@H](C)CC)NC(=O)[C@H]([C@@H](C)O)NC(=O)[C@H](CCCCN)NC1=O` [[Lys5]ShK], the IC50 in test [1] (Kv1.3 (IWQ) IC50 (nM, Avg)) came to 3.3 nM.
As for `CC[C@H](C)[C@@H]1NC(=O)[C@@H](NC(=O)[C@H](CO)NC(=O)[C@@H](N)CCCNC(=N)N)CSSC[C@@H](C(=O)O)NC(=O)[C@H]([C@@H](C)O)NC(=O)CNC(=O)[C@@H]2CSSC[C@@H]3NC(=O)[C@H](CCCCN)NC(=O)[C@H](Cc4ccccc4)NC(=O)[C@H](C)NC(=O)[C@H]([C@@H](C)O)NC(=O)[C@H](CSSC[C@H](NC(=O)[C@H](Cc4cccc5ccccc45)NC(=O)[C@H](CO)NC(=O)[C@H](CC(C)C)NC(=O)[C@H](CCCNC(=N)N)NC(=O)[C@H](Cc4ccc(O)cc4)NC(=O)[C@H](CCCCN)NC(=O)[C@H](CCSC)NC(=O)[C@H](CO)NC(=O)[C@H](Cc4c[nH]cn4)NC(=O)[C@H](CCCCN)NC3=O)C(=O)N[C@@H](CCCCN)C(=O)N[C@@H](CCCNC(=N)N)C(=O)N[C@@H]([C@@H](C)O)C(=O)N2)NC(=O)[C@H](CCCNC(=N)N)NC(=O)[C@H](CO)NC(=O)[C@H](CCCCN)NC(=O)[C@@H]2CCCN2C(=O)[C@H]([C@@H](C)CC)NC(=O)[C@H]([C@@H](C)O)NC(=O)[C@H](CC(=O)O)NC1=O` [[Lys16,29; 1-Na127;Arg30]ShK], the results for the IC50 in test [2] (setting [4]) and in test [3] were 3.83 nM and 3.37 nM, respectively.
In the case of `CC[C@H](C)[C@@H]1NC(=O)[C@@H](NC(=O)[C@H](CO)NC(=O)[C@@H](N)CCCNC(=N)N)CSSC[C@@H](C(=O)O)NC(=O)[C@H]([C@@H](C)O)NC(=O)CNC(=O)[C@@H]2CSSC[C@@H]3NC(=O)[C@H](CCCCN)NC(=O)[C@H](Cc4ccccc4)NC(=O)[C@H](C)NC(=O)[C@H]([C@@H](C)O)NC(=O)[C@H](CSSC[C@H](NC(=O)[C@H](Cc4ccccc4)NC(=O)[C@H](CO)NC(=O)[C@H](CC(C)C)NC(=O)[C@H](CCCNC(=N)N)NC(=O)[C@H](Cc4ccc(O)cc4)NC(=O)[C@H](CCCCN)NC(=O)[C@H](CCSC)NC(=O)[C@H](CO)NC(=O)[C@H](Cc4c[nH]cn4)NC(=O)[C@H](CCCCN)NC3=O)C(=O)N[C@@H](CCCNC(=N)N)C(=O)N[C@@H](CCCNC(=N)N)C(=O)N[C@@H]([C@@H](C)O)C(=O)N2)NC(=O)[C@H](CCCNC(=N)N)NC(=O)[C@H](CO)NC(=O)[C@H](CCCCN)NC(=O)[C@@H]2CCCN2C(=O)[C@H]([C@@H](C)CC)NC(=O)[C@H]([C@@H](C)O)NC(=O)[C@H](CC(=O)O)NC1=O` [[Lys16,Arg30]ShK], the IC50 in test [2] (setting [4]) worked out at 0.189 nM; in test [3], 0.169 nM.
